Laboratory results taken from ChEMBL document CHEMBL4706484, “Apigenin-rivastigmine hybrids as multi-target-directed liagnds for the treatment of Alzheimer's disease” (Eur J Med Chem, 2020).
Calls of active or inactive are those of the source. The calls are words filed in the database; no cut-off is given here.

Assays:
Danio rerio [1] = species: Danio rerio; assay: Protection against amyloid beta (1 to 40 residues)-induced vascular injury in transgenic zebrafish assessed as vascular injury rate at 1.4 ug/ml (reference value: 73.3 %); type: functional; settings: dose 1.4 µg/ml
SH-SY5Y = assay: Neuroprotective activity against amyloid beta (1 to 42 residues)-induced cell injury in human SH-SY5Y cells assessed as cell viability at 10 uM preincubated for 2 hrs followed by H2O2 addition and measured after 24 hrs by MTT assay (reference value: 52.3 %); type: functional; settings: time 26 hrs, read-out: Activity
[2] = Acute toxicity in 2 dpf zebrafish assessed as abnormal intestine at 1.39 to 12.5 ug/ml measured after 3 days; type: tissue-based, Danio rerio; settings: in vivo, 72 h, dose 1.39-12.5 µg/ml, time 3 day
[3] = Acute toxicity in 2 dpf zebrafish assessed as yolk sac absorption delay at 1.39 ug/ml measured after 3 days; design: species or system Danio rerio; settings: in vivo, 72 h, dose 1.39 µg/ml, time 3 day
[4] = Toxicity in 2 dpf zebrafish at 1.39 ug/ml measured after 3 days; design: species or system Danio rerio; settings: in vivo, 72 h, dose 1.39 µg/ml, time 3 day
Acetylcholinesterase [5] = target: Acetylcholinesterase (Homo sapiens, UniProt P22303); assay: Pseudo-irreversible inhibition of human erythrocytes AChE assessed as enzyme recovery activity at 0.1 times IC50 measured at 120 mins using diluted compound relative to control; type: tissue-based; design: scale not given: the % may be the effect or the level left; settings: Erythrocyte
Chain of Acetylcholinesterase (Homo sapiens, UniProt P22303) (P22303 whole entry): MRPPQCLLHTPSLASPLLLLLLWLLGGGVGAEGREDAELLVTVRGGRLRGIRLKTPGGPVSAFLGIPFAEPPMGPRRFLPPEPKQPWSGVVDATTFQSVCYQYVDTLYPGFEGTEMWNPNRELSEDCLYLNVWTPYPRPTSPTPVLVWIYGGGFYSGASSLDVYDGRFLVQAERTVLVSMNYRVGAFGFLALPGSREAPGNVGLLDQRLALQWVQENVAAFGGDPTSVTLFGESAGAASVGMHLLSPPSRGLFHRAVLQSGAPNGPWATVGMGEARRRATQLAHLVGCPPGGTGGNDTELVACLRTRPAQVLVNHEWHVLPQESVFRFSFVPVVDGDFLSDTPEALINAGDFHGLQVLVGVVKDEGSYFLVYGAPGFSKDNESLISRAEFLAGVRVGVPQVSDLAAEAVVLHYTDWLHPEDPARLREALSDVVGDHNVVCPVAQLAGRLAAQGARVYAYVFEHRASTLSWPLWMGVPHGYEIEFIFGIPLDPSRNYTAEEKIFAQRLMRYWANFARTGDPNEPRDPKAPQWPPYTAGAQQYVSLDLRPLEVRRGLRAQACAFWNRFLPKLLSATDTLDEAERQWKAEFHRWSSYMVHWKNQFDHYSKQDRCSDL

[6] = Acute toxicity in 2 dpf zebrafish assessed as effect on liver at 1.39 to 12.5 ug/ml measured after 3 days; design: species or system Danio rerio; settings: in vivo, 72 h, dose 1.39-12.5 µg/ml, time 3 day
[7] = Acute toxicity in 2 dpf zebrafish assessed as yolk sac absorption delay at 12.5 ug/ml measured after 3 days relative to control; design: species or system Danio rerio; settings: in vivo, 72 h, at 12.5 µg/mL, time 3 day
Danio rerio [8] = species: Danio rerio; assay: Antialzheimer activity against 3 dpf zebrafish model of AlCl3-induced AD assessed as change in motility distance at 1.4 ug/ml (reference value: 5204 mm); type: functional; settings: dose 1.4 µg/ml
Danio rerio [9] = species: Danio rerio; assay: Antialzheimer activity against 3 dpf zebrafish model of AlCl3-induced AD assessed as efficacy on motility distance at 12.5 ug/ml relative to control; type: functional; settings: dose 12.5 µg/ml
[10] = Cytotoxicity against human L02 cells assessed as cell viability at 50 uM measured after 72 hrs by MTT assay relative to control; type: cell-based; settings: read-out: Activity
Mus musculus [11] = assay: Reversal of scopolamine-induced Kunming mouse model of memory impairment assessed as spontaneous alteration at 20 mg/kg by Y-maze test (reference value: 41.6 %); type: functional
[12] = Toxicity in 3 dpf zebrafish model of AlCl3-induced AD assessed as minimum toxic concentration; design: species or system Danio rerio; settings: in vivo
[13] = Acute toxicity in 2 dpf zebrafish assessed as absent blood flow at 1.39 to 12.5 ug/ml measured after 3 days; type: tissue-based, Danio rerio; settings: 72 h, dose 1.39-12.5 µg/ml, time 3 day
PC-12 [14] = assay: Neuroprotective activity against H2O2-induced cell injury in rat PC-12 cells assessed as increase in cell viability causing decrease in LDH content preincubated for 2 hrs followed by H2O2 addition and measured after 24 hrs by LDH assay; type: functional, cell-based; settings: dose 5-10 µM, time 26.0 hrs
Danio rerio [15] = species: Danio rerio; assay: Antialzheimer activity against 3 dpf zebrafish model of AlCl3-induced AD assessed as efficacy on motility distance at 4.2 ug/ml relative to control; type: functional; settings: dose 4.2 µg/ml
[16] = Acute toxicity in 2 dpf zebrafish assessed as degenerating trunk muscle within somite at 1.39 to 12.5 ug/ml measured after 3 days; type: tissue-based, Danio rerio; settings: in vivo, 72 h, dose 1.39-12.5 µg/ml, time 3 day
Mus musculus [17] = assay: Antialzheimer activity in scopolamine-induced Kunming mouse model of memory impairment assessed as GC bases ratio (QC data) in brain hippocampus at 10 mg/kg by illumina sequencing method (reference value: 53.64 %); type: functional
[18] = Drug metabolism in rat liver microsomes assessed as metabolite formation by UPLC-MS/MS analysis; type: ADME, Microsome
[19] = Acute toxicity in Kunming mouse assessed as abnormal behavior at 1000 mg/kg; type: organism-based; settings: in vivo
[20] = Acute toxicity in Kunming mouse at 1000 mg/kg; type: organism-based; settings: in vivo
[21] = Acute toxicity in Kunming mouse assessed as dispirited at 2000 mg/kg; type: organism-based; settings: in vivo
Cholinesterase = Cholinesterase (Homo sapiens, UniProt P06276); assay: Pseudo-irreversible inhibition of human serum BChE assessed as enzyme recovery activity at 0.1 times IC50 measured immediately using diluted compound; type: cell-free; design: scale not given: the % may be the effect or the level left
Chain of Cholinesterase (P06276 whole entry): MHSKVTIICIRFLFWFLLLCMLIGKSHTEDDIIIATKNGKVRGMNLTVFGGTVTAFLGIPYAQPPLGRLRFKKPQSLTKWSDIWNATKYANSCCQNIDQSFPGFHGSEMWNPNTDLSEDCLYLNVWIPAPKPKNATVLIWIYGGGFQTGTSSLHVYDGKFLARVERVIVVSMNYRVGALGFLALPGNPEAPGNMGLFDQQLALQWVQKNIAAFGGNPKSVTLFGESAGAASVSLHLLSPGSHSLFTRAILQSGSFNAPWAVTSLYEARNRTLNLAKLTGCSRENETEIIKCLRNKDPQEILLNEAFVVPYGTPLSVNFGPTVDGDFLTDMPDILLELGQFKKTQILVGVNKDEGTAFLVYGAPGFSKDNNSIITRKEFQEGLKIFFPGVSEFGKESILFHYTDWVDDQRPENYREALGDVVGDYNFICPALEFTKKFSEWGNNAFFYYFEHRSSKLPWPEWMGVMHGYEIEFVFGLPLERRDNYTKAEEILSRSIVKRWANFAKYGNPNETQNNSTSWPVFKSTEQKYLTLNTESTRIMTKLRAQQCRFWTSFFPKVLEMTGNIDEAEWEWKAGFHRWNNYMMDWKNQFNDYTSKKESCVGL

PC-12 [22] = assay: Neuroprotective activity against H2O2-induced cell injury in rat PC-12 cells assessed as cell viability at 10 uM preincubated for 2 hrs followed by H2O2 addition and measured after 24 hrs by MTT assay (reference value: 53.8 %); type: functional; settings: time 26 hrs, read-out: Activity
Acetylcholinesterase [23] = target: T1, Acetylcholinesterase (Rattus norvegicus, UniProt P37136); assay: Inhibition of rat cortex AChE using acetylthiocholine iodide as substrate measured after 15 mins by Ellman's method; type: tissue-based
T1 sequence (P37136 whole entry): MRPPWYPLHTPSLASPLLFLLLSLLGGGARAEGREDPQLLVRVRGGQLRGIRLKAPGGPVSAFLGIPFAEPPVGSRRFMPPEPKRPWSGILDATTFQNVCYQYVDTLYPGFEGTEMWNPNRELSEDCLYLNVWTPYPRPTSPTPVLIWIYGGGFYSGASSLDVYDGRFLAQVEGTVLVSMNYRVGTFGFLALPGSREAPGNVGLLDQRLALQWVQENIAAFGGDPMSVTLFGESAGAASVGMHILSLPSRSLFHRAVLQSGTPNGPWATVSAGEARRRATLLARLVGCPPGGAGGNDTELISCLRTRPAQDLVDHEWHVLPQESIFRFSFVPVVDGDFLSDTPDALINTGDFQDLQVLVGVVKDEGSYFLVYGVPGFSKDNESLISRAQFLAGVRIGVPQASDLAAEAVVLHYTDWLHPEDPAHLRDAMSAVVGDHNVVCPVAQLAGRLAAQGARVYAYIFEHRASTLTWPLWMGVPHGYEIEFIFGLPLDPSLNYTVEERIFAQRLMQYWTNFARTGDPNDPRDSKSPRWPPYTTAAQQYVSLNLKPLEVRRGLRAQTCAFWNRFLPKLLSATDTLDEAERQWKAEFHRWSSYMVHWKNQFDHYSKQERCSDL

Mus musculus [24] = assay: Antialzheimer activity in scopolamine-induced Kunming mouse model of memory impairment assessed as uniquely mapped in brain hippocampus at 10 mg/kg by illumina sequencing method (reference value: 94.54 %); type: functional
[25] = Disaggregation of Copper-induced amyloid beta (1 to 42) (unknown origin) preformed fibrils measured after 48 hrs by TEM analysis
[26] = Acute toxicity in 2 dpf zebrafish assessed as precipitation at 20 ug/ml measured after 3 days; design: species or system Danio rerio; settings: in vivo, 72 h, dose 20 µg/ml, time 3 day
[27] = Acute toxicity in 2 dpf zebrafish assessed as slow blood flow at 1.39 to 12.5 ug/ml measured after 3 days; type: tissue-based, Danio rerio; settings: 72 h, dose 1.39-12.5 µg/ml, time 3 day
[28] = Acute toxicity in 2 dpf zebrafish assessed as pericardial edema at 1.39 to 12.5 ug/ml measured after 3 days; design: species or system Danio rerio; settings: in vivo, 72 h, dose 1.39-12.5 µg/ml, time 3 day
[29] = Cytotoxicity against human L02 cells assessed as cell viability at 6.25 uM measured after 72 hrs by MTT assay relative to control; type: cell-based; settings: read-out: Activity
[30] = Cytotoxicity against human L02 cells assessed as cell viability at 12.5 uM measured after 72 hrs by MTT assay relative to control; type: cell-based; settings: read-out: Activity

CCN(C)C(=O)Oc1ccc(-c2cc(=O)c3c(O)cc(OC(=O)N(C)CC)cc3o2)cc1
Activity (Danio rerio [1]): 60% | viability at 10 µM (SH-SY5Y): 72.3% | Activity [2]: Non-Toxic | Activity [3]: Non-Toxic | Activity [4]: Non-Toxic | Activity (Acetylcholinesterase [5]): 83.6% | Activity [6]: Non-Toxic | Activity [7]: 93.3% | Activity (Danio rerio [8]): 6432 mm | Efficacy (Danio rerio [9]): 73% | viability at 72 h, 50 µM [10]: 59.7% | Activity (Mus musculus [11]): 57.1% | MTC [12]: 12.5 µg/mL | Activity [13]: Non-Toxic | Activity (PC-12 [14]): Dose-dependent effect | Efficacy (Danio rerio [15]): 65% | Activity [16]: Non-Toxic | Activity (Mus musculus [17]): 60.72% | Drug metabolism [18]: Metabolite_Detected | Activity [19]: Non-Toxic | Activity [20]: Non-Toxic | Activity [21]: Toxic | Activity (Cholinesterase): 44.8% | viability at 10 µM (PC-12 [22]): 76.7% | IC50 (Acetylcholinesterase [23]): 4.7 µM | Activity (Mus musculus [24]): 93.76% | Activity [25]: Active | Activity [26]: Toxic | Activity [27]: Non-Toxic | Activity [28]: Non-Toxic | viability at 72 h, 6.25 µM [29]: 99% | viability at 72 h, 12.5 µM [30]: 95.6%
